In patent US9951068B2 (Proximagen Limited, priority 2013, dated 2018):

Experiments:
[1] = target: purified recombinantly expressed human SSAO (Homo sapiens (Human), UniProt Q16853); experiment: SSAO enzyme inhibition assay (HRP-coupled hydrogen peroxide detection or 14C-benzaldehyde detection, benzylamine substrate); format: biochemical; conditions: SSAO inhibitory activity, human recombinant SSAO, RT
Procedure, shortened: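 Human recombinant SSAO pre-incubated ~15 min with compound, room temperature. Radiometric format: 10 ug/ml enzyme, 40 uM 14C-benzylamine, 1 h, in PBS. IC50 by four-parameter fit.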

[2] = target: human ether a go-go related gene (hERG) K+ channel (Homo sapiens (Human), UniProt Q12809); experiment: hERG assay, IonWorks patch clamp electrophysiology; format: cell-based; conditions: Chinese Hamster Lung cell line stably expressing hERG; max assay concentration 11 uM
Sequence of human ether a go-go related gene (hERG) K+ channel (Q12809 whole entry): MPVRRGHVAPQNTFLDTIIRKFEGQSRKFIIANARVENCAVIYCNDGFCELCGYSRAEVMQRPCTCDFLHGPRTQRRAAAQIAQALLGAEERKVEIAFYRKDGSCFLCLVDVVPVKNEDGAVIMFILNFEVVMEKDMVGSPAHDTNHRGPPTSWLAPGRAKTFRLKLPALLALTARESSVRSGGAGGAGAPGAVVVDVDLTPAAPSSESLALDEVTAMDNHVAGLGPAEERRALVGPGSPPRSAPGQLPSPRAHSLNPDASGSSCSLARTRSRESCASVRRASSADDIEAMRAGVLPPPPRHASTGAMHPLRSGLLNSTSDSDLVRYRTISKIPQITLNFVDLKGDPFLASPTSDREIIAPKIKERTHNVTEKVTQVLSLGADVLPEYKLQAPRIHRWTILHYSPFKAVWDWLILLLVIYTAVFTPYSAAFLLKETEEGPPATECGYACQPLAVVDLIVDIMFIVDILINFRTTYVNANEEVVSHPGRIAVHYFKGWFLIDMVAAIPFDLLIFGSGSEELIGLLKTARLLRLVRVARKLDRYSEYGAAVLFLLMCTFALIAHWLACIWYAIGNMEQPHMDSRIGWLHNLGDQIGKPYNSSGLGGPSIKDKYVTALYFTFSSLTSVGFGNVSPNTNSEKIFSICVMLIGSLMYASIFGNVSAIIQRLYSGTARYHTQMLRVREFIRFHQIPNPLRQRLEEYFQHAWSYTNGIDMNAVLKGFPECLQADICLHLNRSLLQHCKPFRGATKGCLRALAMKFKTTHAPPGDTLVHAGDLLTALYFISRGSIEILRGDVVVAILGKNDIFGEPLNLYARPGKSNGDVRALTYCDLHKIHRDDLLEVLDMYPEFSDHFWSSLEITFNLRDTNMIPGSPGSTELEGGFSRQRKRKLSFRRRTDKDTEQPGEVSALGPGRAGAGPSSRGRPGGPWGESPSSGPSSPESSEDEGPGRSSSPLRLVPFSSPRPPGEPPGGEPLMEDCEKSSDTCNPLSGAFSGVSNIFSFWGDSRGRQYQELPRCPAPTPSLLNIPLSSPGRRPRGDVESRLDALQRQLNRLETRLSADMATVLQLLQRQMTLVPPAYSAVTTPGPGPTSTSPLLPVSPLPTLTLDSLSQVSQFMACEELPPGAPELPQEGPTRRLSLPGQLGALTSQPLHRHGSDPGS
Method: Compounds of the invention were tested for inhibition of the human ether a go-go related gene (hERG) K^+ channel using IonWorks patch clamp electrophysiology. 8 Point concentration-response curves were generated on two occasions using 3-fold serial dilutions from the maximum assay concentration (11 uM). Electrophysiological recordings were made from a Chinese Hamster Lung cell line stably expressing the full length hERG channel. Single cell ion currents were measured in the perforated patch clamp configuration (100 ug/mL amphoterocin) at room temperature using an IonWorks Quattro instrument. The internal solution contained 140 mM KCl, 1 mM MgCl2, 1 mM EGTA and 20 mM HEPES and was buffered to pH 7.3. The external solution contained 138 mM NaCl, 2.7 mM KCl, 0.9 mM CaCl2, 0.5 mM MgCl2, 8 mM Na2HPO4 and 1.5 mM KH2PO4, and was buffered to pH 7.3. […] This sequence was repeated 5 times at a frequency of 0.25 Hz. Currents were measured from the tail step at the 5th pulse, and referenced to the holding current. Compounds were incubated for 6-7 min prior to a second measurement of the hERG signal using an identical pulse train. […] A control compound (quinidine) was used (see Table 20 below).

Sequence of purified recombinantly expressed human SSAO (Q16853 29-763): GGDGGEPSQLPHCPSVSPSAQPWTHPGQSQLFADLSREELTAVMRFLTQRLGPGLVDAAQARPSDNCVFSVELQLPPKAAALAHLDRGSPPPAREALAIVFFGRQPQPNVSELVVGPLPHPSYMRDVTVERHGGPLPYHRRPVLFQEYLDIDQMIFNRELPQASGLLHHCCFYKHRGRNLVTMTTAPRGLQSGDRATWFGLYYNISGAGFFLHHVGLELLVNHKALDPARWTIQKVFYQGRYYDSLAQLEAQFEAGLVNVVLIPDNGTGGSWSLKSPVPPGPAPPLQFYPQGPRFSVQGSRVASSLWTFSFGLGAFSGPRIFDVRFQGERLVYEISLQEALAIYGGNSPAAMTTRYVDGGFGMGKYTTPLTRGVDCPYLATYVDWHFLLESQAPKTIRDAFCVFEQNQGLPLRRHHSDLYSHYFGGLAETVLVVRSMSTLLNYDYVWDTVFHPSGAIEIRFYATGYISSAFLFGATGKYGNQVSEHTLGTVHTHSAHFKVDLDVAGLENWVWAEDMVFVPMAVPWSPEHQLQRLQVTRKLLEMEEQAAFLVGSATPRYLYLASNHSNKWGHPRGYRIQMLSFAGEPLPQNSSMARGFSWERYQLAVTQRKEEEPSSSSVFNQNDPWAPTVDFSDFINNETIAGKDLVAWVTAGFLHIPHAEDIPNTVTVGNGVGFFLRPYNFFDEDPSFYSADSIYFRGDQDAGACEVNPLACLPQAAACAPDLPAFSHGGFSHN

| Structure (SMILES) | IC50 [1] | IC50 [2] |
| --- | --- | --- |
| CN1CCN(Cc2ccc(-c3nc4ccncc4n3-c3ccc(Cl)cc3)cc2)CC1 [Example 46, 1-({4-[3-(4-Chlorophenyl)-3H-imidazo[4,5-c]pyridin-2-yl]phenyl}methyl)-4-methylpiperazine; formic acid] | < 50 nM | > 10 µM |
| C[C@@H]1CN(c2ncc(-c3nc4ccncc4n3-c3ccc(F)cc3)cn2)C[C@H](C)O1 [Example 23, (2R,6S)-4-{5-[3-(4-Fluorophenyl)-3H-imidazo[4,5-c]pyridin-2-yl]pyrimidin-2-yl}-2,6-dimethylmorpholine] | < 50 nM | > 10 µM |

Continued, in another order:

| IC50 [1] | Structure (SMILES) | IC50 [2] |
| --- | --- | --- |
| < 50 nM | NC(=O)N1CCN(c2ccc(-c3nc4ccncc4n3-c3ccc(F)cc3)cn2)CC1 [Example 92, 4-{5-[3-(4-Fluorophenyl)-3H-imidazo[4,5-c]pyridin-2-yl]pyridin-2-yl}piperazine-1-carboxamide] | > 10 µM |
| < 50 nM | Fc1ccc(-n2c(-c3cnc(N4CCCC4)nc3)nc3ccncc32)cc1 [Example 69, 5-[3-(4-Fluorophenyl)-3H-imidazo[4,5-c]pyridin-2-yl]-2-(pyrrolidin-1-yl)pyrimidine] | > 10 µM |
| < 50 nM | Clc1ccc(-n2c(-c3ccc(N4CCNCC4)nc3)nc3ccncc32)cc1 [Example 50, 1-{5-[3-(4-Chlorophenyl)-3H-imidazo[4,5-c]pyridin-2-yl]pyridin-2-yl}piperazine] | > 10 µM |
